Measured values reported in US7608246B2 (The Brigham and Women's Hospital, Inc., priority 2005, dated 2009).

Tests used:
[1] = system: CD1b-restricted T cell line LDN5; assay: CD1b restricted T cell response to mycobacterial lipid antigens with or without apoE; type: cell-based; details: versus without apoE
Text: D) Enhancement of a CD1b dependent T cell response against foreign antigens.

αGC reactive T cells = assay: ApoE enhancement of GGC reactivity: DC pulsed, co-cultured with αGC reactive T cells, IFNγ ELISA; type: cell-based, human; details: for increase of antigenic potency of GGC: compared to freshly sonicated free GGC or GGC with HDL, LDL or albumin
Description: Sonicated GGC was incubated with the indicated components in serum-free media with 4 mg/ml bovine serum albumin (BSA) as a carrier for 1-2 hours (or freshly sonicated) before pulsing DC and co-culturing with αGC reactive T cells in media supplemented with 2% human serum. IFNγ was measured in 16-24 hours by ELISA.
C) Dose-dependence of apoE.

LDL-R = assay: ApoB competition at the LDL-R: DC pulsed with free GGC or apoE-GGC, activation of αGC reactive T cells; type: cell-based, human; details: increasing amounts of apoB
Description: C) Free GGC or apoE-GGC was pulsed onto DC in the presence of increasing concentrations of apoB, and the subsequent activation of αGC reactive T cells was measured. There was no effect of apoB on PHA-stimulation of T cells. All data are representative of at least three experiments.
In a second approach, advantage was taken of the fact that apoB, the primary component of LDL, also binds to the LDL-R and can serve as a competitive ligand, while not binding LRP (Beisiegel et al., Nature 341:162-4 (1989)). […] As controls, increasing amounts of apoB had no effect on the dose response to free GGC (FIG. 3C) or on the PHA induced T cell response.

CD1d-reactive T cells = assay: T cell reactivity to GGC in apoE-depleted human serum; type: cell-based; details: compared to normal human serum
Text: Data are means of triplicate samples +/−SEM and are representative of four independent experiments using two separate apoE depletion columns and varying doses of antigen. Statistics reflect all doses in all experiments: *p<0.001, **p<0.001, ***p<0.01.

TT-reactive clone = type: cell-based
αGC-reactive NKT cells [2] = assay: Response to intravenous GGC in apoE-deficient mice (intracellular IFNγ of CD1d tetramer positive cells); type: in vivo; details: 200 ng GGC or 1.5 μg anti-CD3
Text: Spleens and livers were harvested and TcRβ-positive, CD19-negative, CD1d tetramer positive cells analyzed for intracellular IFNγ production by flow cytometry.
This was not due to a nonspecific deficit of T cell reactivity, since intravenous administration of anti-CD3 antibodies activated αGC reactive T cells similarly in both apoE-deficient mice and controls. Thus, apoE plays a crucial role in the in vivo presentation of an exogenous lipid antigen.

apoE = apoE (Homo sapiens, UniProt P02649); assay: ApoE-GGC binding, heparin affinity column
Description: A) ApoE-GGC binding. […] Fractions were assayed for antigenic activity as in FIG. 1. There was no difference in non-specific loss to the column. Data are representative of at least six separate experiments.

DC = assay: Rapidity of lipid antigen uptake: DC pulsed for varying times, then T cell stimulation; type: cell-based, human; details: free lipid in media alone
Description: A) ApoE enhances the efficiency of presentation of GGC. […] GGC (solid squares and striped bars) or sonicated free GGC (open triangles and open bars) was incubated with DC in serum-free media with 4 mg/ml BSA for the indicated times before washing and testing the ability to stimulate T cells as described in FIGS. 1 and 2. Upper panel: Dose response curve of GGC for 2 minute pulse. Lower panel: Various pulse times are shown for 50 ng/ml GGC.
To determine the rapidity and efficiency of lipid uptake into DC, free lipid antigen or apoE-bound lipid antigen was used to pulse DC for varying times before washing the cells and assaying their subsequent ability to present antigen to T cells.

αGC-reactive NKT cells [3] = assay: Response to intravenous GGC in LDL-R deficient mice; type: in vivo; details: 200 ng GGC or 1.5 μg anti-CD3
Description: D) LDLR−/− and matched wild type controls were challenged intravenously with 200 ng GGC, 1.5 μg anti-CD3 or vehicle as described in FIG. 1D. Shown are results from spleen, with similar results in the liver. Represents two separate experiments with 10 LDLR−/− and 10 wild type mice.
Finally, the response to GGC in LDL-R deficient mice was examined. […] Thus, it was concluded that the LDL-R plays a major role in the uptake of apoE-lipid antigen complexes and presentation by CD1.

CD1c = CD1c presented antigen T cell stimulation with or without apoE; type: cell-based; details: versus without apoE

Sequence of apoE (P02649 19-317): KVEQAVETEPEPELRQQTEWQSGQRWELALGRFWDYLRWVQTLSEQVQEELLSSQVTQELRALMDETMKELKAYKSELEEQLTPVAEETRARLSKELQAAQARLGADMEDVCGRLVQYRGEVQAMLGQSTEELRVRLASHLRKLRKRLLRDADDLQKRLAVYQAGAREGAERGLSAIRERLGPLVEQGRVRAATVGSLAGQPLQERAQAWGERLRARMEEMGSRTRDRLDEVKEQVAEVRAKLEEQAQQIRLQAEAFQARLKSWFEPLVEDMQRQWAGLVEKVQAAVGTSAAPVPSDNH

## Glucose monomycolate
[1]
  CD1b restricted T cell activation when complexed with apoE: more efficient

## VLDL-derived apoE: apoE derived from VLDL
αGC reactive T cells
  increase of antigenic potency of GGC: ~50 fold

## apolipoprotein B [apoB]
LDL-R
  effect on antigen presentation by DC pulsed with apoE-GGC: dose-dependent diminution
  effect on dose response to free GGC or PHA induced T cell response: no effect

## apolipoprotein E [apoE]
CD1d-reactive T cells
  capacity of serum incubated with GGC to stimulate T cells: recovered
αGC reactive T cells; increasing the concentration of apoE
  effect on control T cell stimulators (CD3, PHA or PMA/ionomycin): no effect
TT-reactive clone
  effect on MHC class II restricted response to tetanus toxoid: no effect

## galactosyl(α1-2)galactosyl ceramide [GGC]
αGC-reactive NKT cells [2]
  response in apoE-deficient mice versus wild type controls: drastically reduced
apoE; 10 minute incubation at room temperature
  binding of GGC to apoE: all detectable lipid antigen remained bound to apoE
apoE; in the presence of a 500-fold excess of albumin
  GGC bound to apoE: greater than 95%
DC
  time required to achieve maximal stimulation: 4 to 6 h
DC; 4-6 hours
  maximal stimulation relative to that achieved in 2 minutes with apoE: 48% (+/−11%)
αGC-reactive NKT cells [3]
  response in LDL-R knockouts versus wild type controls: greatly diminished response

## manosyl-phosphomycoketide
CD1c
  T cell stimulation by CD1c presented antigen complexed with apoE: significantly more efficient

## mycolic acid
[1]
  CD1b restricted T cell activation when complexed with apoE: more efficient

## recombinant apoE: recombinant apoE
αGC reactive T cells
  increase of antigenic potency of GGC: ~50 fold
